In BindingDB's records for doi:10.1021/acs.biochem.6b00486 (Academia Sinica, 2016):

How the values were obtained:
IspB protein [1] = molecular target: T1, IspB protein (Escherichia coli (strain 55989 / EAEC), UniProt B7LHQ0); assay: Radioactive Assay
IspB protein [2] = molecular target: T1, IspB protein; assay: Fluorescent Assay

T1 sequence (B7LHQ0 whole entry): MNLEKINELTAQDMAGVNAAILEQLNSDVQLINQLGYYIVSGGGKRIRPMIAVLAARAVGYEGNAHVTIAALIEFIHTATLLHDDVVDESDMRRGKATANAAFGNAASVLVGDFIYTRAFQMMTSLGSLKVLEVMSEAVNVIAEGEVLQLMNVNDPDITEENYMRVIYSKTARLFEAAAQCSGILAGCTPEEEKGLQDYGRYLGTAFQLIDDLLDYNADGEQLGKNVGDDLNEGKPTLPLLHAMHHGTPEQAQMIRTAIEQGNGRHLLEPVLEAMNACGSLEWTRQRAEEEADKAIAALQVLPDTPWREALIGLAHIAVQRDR

SMILES: O=P(O)(O)C(O)(Cn1ccnc1)P(=O)(O)O
- IC50 (IspB protein [1]): 290 nM
- IC50 (IspB protein [2]): 220 nM
